The target of one assay is Cholinesterase (Equus caballus, UniProt P81908). Nature of the assay: Inhibition of equine serum BChE using butyrylthiocholine chloride as substrate preincubated for 15 mins followed by substrate addition and measured after 30 mins by Ellman's method.
Another assay has as its target Acetylcholinesterase (Electrophorus electricus, UniProt O42275). The assay can be described thus: Inhibition of electric eel AChE using acetylthiocholine iodide as substrate preincubated for 15 mins followed by substrate addition and measured after 30 mins by Ellman's method.
Assay [1] is described as follows: Selectivity index, ratio of IC50 for equine serum BChE to IC50 for electric eel AChE.
A short description of assay [2]: Selectivity index, ratio of IC50 for electric eel AChE to IC50 for equine serum BChE.

Sequence of Acetylcholinesterase (O42275 whole entry): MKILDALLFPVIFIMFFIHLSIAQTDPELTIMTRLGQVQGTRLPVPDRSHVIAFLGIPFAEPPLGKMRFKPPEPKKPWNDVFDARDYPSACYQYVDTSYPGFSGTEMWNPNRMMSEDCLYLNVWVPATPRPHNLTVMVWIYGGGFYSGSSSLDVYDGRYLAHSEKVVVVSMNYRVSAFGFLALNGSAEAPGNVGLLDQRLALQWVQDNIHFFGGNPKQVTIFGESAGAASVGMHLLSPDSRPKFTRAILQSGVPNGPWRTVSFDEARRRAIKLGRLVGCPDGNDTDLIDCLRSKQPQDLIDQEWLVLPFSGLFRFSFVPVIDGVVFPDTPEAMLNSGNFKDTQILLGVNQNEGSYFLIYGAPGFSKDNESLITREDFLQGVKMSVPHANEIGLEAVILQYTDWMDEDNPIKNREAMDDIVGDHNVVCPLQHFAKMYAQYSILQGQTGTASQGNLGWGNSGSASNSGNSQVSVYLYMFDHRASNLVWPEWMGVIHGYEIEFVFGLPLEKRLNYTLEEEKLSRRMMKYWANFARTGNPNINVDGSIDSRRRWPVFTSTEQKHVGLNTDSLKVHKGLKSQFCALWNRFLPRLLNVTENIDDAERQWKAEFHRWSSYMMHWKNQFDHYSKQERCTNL
Sequence of Cholinesterase (P81908 whole entry): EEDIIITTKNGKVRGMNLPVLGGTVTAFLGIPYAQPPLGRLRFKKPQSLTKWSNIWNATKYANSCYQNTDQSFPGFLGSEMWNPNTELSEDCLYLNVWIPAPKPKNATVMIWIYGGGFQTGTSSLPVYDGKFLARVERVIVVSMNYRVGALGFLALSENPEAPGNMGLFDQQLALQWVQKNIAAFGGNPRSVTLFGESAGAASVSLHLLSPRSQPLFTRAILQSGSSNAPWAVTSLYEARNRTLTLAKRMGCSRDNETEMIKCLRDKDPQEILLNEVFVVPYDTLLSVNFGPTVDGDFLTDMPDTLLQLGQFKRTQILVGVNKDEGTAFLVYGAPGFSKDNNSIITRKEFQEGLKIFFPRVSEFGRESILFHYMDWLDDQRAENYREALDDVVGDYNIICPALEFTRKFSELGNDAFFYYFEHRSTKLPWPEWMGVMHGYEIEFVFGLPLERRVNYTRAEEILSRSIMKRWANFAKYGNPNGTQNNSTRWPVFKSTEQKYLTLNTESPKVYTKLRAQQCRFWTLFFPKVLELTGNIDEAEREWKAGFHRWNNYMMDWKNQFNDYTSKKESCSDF

As for `O=C1/C(=C/c2ccc(Cl)cc2)CNCC12C(c1ccc(Cl)cc1)C(Cc1c[nH]c3ccccc13)NC21c2ccccc2C2N=c3ccccc3=NC21` (stereo not given), the values for the IC50 at Cholinesterase and on Acetylcholinesterase were 18.8 µM and 12.5 µM, respectively. For the same compound, the Ratio IC50 in assay [1] was found to be 1.5; in assay [2] it was 0.67.
`Cc1ccccc1/C=C1\CNCC2(C1=O)C(c1ccccc1C)C(Cc1c[nH]c3ccccc13)NC21c2ccccc2C2N=c3ccccc3=NC21` (stereo not given): the 50% inhibitory concentration (IC50) against Cholinesterase was determined as 14.7 µM; on Acetylcholinesterase, 5.8 µM. The Ratio IC50 came to 2.54 in assay [1] and 0.39 in assay [2].
Consider `O=C1/C(=C/c2ccccc2Cl)CNCC12C(c1ccccc1Cl)C(Cc1c[nH]c3ccccc13)NC21c2ccccc2C2N=c3ccccc3=NC21` (stereo not given), for which the IC50 against Cholinesterase was 26.7 µM; against Acetylcholinesterase, 16.4 µM. The Ratio IC50 in assay [1] was 1.63; in assay [2], 0.62.
In the same order, the values of `COc1ccc(/C=C2\CNCC3(C2=O)C(c2ccc(OC)cc2)C(Cc2c[nH]c4ccccc24)NC32c3ccccc3C3N=c4ccccc4=NC32)cc1` (stereo not given) are 23.2 µM, 7.2 µM, 3.22 and 0.31.
For `Cc1cccc(/C=C2\CNCC3(C2=O)C(c2cccc(C)c2)C(Cc2c[nH]c4ccccc24)NC32c3ccccc3C3N=c4ccccc4=NC32)c1` (stereo not given), the results for the concentration for half-maximal inhibition (IC50) against Cholinesterase and against Acetylcholinesterase were 15.2 µM and 6.84 µM, respectively. For the same compound, the Ratio IC50 in assay [1] worked out at 2.22; in assay [2] it was 0.45.
In the case of `O=C1/C(=C/c2ccc(Br)cc2)CNCC12C(c1ccc(Br)cc1)C(Cc1c[nH]c3ccccc13)NC21c2ccccc2C2N=c3ccccc3=NC21` (stereo not given), the IC50 is 20.6 µM against Cholinesterase and 15.2 µM at Acetylcholinesterase. Moreover, the Ratio IC50 in assay [1] worked out at 1.35; in assay [2], 0.74.
The like results for `O=C1/C(=C/c2cccc([N+](=O)[O-])c2)CNCC12C(c1cccc([N+](=O)[O-])c1)C(Cc1c[nH]c3ccccc13)NC21c2ccccc2C2N=c3ccccc3=NC21` (stereo not given) were, in that order, 10.5 µM, 2.01 µM, 5.2 and 0.19.
The like results for `Cc1ccc(/C=C2\CNCC3(C2=O)C(c2ccc(C)cc2)C(Cc2c[nH]c4ccccc24)NC32c3ccccc3C3N=c4ccccc4=NC32)cc1` (stereo not given) were, in that order, 12.4 µM, 3.22 µM, 3.85 and 0.26.
In the same order, the values of `O=C1/C(=C/c2ccccc2)CNCC12C(c1ccccc1)C(Cc1c[nH]c3ccccc13)NC21c2ccccc2C2N=c3ccccc3=NC21` (stereo not given) are 14.2 µM, 7.35 µM, 1.93 and 0.52.
In the case of `O=C1/C(=C/c2ccc(Cl)cc2Cl)CNCC12C(c1ccc(Cl)cc1Cl)C(Cc1c[nH]c3ccccc13)NC21c2ccccc2C2N=c3ccccc3=NC21` (stereo not given), the 50% inhibitory concentration (IC50) worked out at 17.6 µM at Cholinesterase and 10.2 µM on Acetylcholinesterase. The Ratio IC50 in assay [1] came to 1.73; in assay [2], 0.58.

The values above are taken from ChEMBL document CHEMBL4390687, “Dispiropyrrolidinyl-piperidone embedded indeno[1,2-b]quinoxaline heterocyclic hybrids: Synthesis, cholinesterase inhibitory activity and their molecular docking simulation” (Bioorg Med Chem, 2019).
